Measurements published in patent publication US20230165873A1, “Methods of Use for Single Molecule Compounds Providing Multi-Target Inhibition to Treat Covid 19” (priority 2020, published 2023).

biological target: PI3K gamma (Homo sapiens, UniProt P48736); experiment: PI3K gamma in vitro inhibition; format: biochemical; settings: read-out: IC50 inhibition PI3K gamma
Description: (§1) The kinase or bromodomain inhibitory activity of a compound of the invention can be determined by routine methods known to the skilled artisan without undue experimentation, or by procuring relevant analysis by a commercial vendor offering such services. […] In vivo, PI3K inhibition can be determined from target tissue biopsies by standard tissue processing in which cells are disrupted and Western Blot analysis is performed to determine the presence or absence of pAKT (substrate of PI3K) relative to a control sample. PI3K inhibition assays and BTK inhibition assays are known in the art and can be procured commercially through vendors such as Reaction Biology (Malvern, PA). The activity of a compound of the invention as an inhibitor of a bromodomain-containing protein, such as a BET protein, including BRD2, BRD3, BRD4, and/or BRDT, or an isoform or mutant thereof, may be determined in vitro, in vivo, or in a cell line. In vitro assays include assays that determine inhibition of bromodomain-containing proteins. Alternatively, inhibitor binding may be determined by running a competition experiment where a provided compound is incubated with a bromodomain-containing protein, such as a BET protein bound to known ligands, labeled or unlabeled. In vitro bromodomain inhibition assays can be performed using Alpha Screen Technology (Perkin Elmer Life and Analytical Sciences, Shelton, CT). In vivo bromodomain inhibition can be determined indirectly by evaluating the amount of a protein whose gene transcription is influenced or controlled by the bromodomain protein, for example, MYCN protein transcription is controlled by BRD4 (J.E. Delmore et al., Cell 2011, 146, 904-917; A. Puissant, Cancer Discov. 2013, 3, 308-323).
(§2) IC50 inhibition data against the indicated targets were determined for compounds of the invention using standard in vitro assays (Tables 8 and 9).

Chain of PI3K gamma (P48736 whole entry): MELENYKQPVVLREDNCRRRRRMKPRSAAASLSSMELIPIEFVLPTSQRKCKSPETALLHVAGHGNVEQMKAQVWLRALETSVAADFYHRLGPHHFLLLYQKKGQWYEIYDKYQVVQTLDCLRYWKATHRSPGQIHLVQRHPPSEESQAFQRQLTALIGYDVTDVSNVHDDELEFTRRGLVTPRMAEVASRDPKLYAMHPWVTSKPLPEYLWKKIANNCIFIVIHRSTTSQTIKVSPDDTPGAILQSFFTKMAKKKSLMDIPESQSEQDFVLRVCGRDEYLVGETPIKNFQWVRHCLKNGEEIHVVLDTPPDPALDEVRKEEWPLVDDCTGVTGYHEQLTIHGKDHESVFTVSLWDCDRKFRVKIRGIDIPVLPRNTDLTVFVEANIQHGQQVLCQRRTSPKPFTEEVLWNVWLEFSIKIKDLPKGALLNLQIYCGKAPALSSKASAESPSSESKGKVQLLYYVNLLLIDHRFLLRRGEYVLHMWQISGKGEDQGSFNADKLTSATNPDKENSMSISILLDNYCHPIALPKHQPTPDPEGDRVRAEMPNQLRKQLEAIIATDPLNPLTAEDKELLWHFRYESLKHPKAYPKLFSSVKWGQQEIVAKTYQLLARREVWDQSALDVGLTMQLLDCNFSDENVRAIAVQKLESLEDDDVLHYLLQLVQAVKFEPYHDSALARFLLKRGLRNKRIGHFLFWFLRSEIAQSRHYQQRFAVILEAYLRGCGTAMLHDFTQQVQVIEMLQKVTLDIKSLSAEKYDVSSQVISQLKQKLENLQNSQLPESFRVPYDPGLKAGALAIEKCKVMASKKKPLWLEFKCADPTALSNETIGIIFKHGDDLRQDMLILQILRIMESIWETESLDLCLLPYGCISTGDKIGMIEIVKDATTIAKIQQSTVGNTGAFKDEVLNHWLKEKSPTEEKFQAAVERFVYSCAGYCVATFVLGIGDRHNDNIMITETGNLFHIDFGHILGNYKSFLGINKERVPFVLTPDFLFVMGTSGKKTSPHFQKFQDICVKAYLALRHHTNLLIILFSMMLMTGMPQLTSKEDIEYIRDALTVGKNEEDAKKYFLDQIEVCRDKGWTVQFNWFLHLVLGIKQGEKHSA

Q: For `O=c1cc(N2CCNCC2)oc2c(-c3ccc4c(c3)OCCO4)csc12` [Compound 1], which IC50 is on record?
A: > 45000 nM

Q: Which IC50 does the source give for `O=C(NCc1cccnc1)c1cc(-c2csc3c(=O)cc(N4CCOCC4)oc23)cc2c1OCCO2` [Compound 2] here?
A: < 500 nM

Q: How did the IC50 turn out when `O=C(NCc1cccnc1)c1cc(-c2csc3c(=O)cc(N4CCNCC4)oc23)cc2c1OCCO2` [Compound 3] was run?
A: 10000 to 45000 nM

Q: With `CN1CCN(c2cc(=O)c3scc(-c4cc5c(c(C(=O)NCc6cccnc6)c4)OCCO5)c3o2)CC1` [Compound 4] as the compound, how does the IC50 read?
A: 10000 to 45000 nM

Q: Which IC50 does the source give for `COC(=O)c1cc(-c2csc3c(=O)cc(N4CCN(C(=O)OC(C)(C)C)CC4)oc23)cc2c1OCCO2` [Compound 5] here?
A: < 500 nM

Q: With `CN(C)C(=O)c1cc2cnc(Nc3ccc(-c4csc5c(=O)cc(N6CCOCC6)oc45)cn3)nc2n1C1CCCC1` [Compound 8] as the compound, how does the IC50 read?
A: 500 to 1000 nM

Q: How did the IC50 turn out when `CN(C)C(=O)c1cc2cnc(Nc3ccc(-c4csc5c(=O)cc(N6CCNCC6)oc45)cc3)nc2n1C1CCCC1` [Compound 9] was run?
A: 10000 to 45000 nM

biological target: CDK4 cyclinD1 (Homo sapiens, UniProt P11802); experiment: CDK4 cyclinD1 in vitro inhibition; format: biochemical; settings: not given
Description: as §1, §2

Chain of CDK4 cyclinD1 (P11802 whole entry): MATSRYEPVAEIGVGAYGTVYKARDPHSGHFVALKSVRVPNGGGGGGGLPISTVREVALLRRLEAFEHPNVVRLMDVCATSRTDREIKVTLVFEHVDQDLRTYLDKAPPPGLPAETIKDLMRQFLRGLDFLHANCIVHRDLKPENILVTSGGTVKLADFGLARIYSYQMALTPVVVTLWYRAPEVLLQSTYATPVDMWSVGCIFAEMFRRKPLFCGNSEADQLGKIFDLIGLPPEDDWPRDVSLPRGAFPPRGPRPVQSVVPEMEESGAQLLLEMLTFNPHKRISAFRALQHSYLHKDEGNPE
Chain of CDK4 cyclinD1 (P24385 whole entry partner): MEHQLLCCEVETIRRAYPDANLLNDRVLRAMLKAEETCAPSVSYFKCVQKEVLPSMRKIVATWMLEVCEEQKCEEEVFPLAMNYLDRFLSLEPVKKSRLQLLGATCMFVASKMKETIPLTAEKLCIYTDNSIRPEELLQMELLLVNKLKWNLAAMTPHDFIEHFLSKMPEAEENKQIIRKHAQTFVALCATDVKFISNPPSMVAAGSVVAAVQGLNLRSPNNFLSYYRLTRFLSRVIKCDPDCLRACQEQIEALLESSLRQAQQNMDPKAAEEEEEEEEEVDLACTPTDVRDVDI

Q: For `CN(C)C(=O)c1cc2cnc(Nc3ccc(-c4csc5c(=O)cc(N6CCOCC6)oc45)cn3)nc2n1C1CCCC1` [Compound 8], which IC50 is on record?
A: < 500 nM

Q: How did the IC50 turn out when `CN(C)C(=O)c1cc2cnc(Nc3ccc(-c4csc5c(=O)cc(N6CCNCC6)oc45)cc3)nc2n1C1CCCC1` [Compound 9] was run?
A: < 500 nM

biological target: PI3K beta (Homo sapiens, UniProt P42338); experiment: PI3K beta in vitro inhibition; format: biochemical; settings: not given
Description: as §1

Chain of PI3K beta (P42338 whole entry): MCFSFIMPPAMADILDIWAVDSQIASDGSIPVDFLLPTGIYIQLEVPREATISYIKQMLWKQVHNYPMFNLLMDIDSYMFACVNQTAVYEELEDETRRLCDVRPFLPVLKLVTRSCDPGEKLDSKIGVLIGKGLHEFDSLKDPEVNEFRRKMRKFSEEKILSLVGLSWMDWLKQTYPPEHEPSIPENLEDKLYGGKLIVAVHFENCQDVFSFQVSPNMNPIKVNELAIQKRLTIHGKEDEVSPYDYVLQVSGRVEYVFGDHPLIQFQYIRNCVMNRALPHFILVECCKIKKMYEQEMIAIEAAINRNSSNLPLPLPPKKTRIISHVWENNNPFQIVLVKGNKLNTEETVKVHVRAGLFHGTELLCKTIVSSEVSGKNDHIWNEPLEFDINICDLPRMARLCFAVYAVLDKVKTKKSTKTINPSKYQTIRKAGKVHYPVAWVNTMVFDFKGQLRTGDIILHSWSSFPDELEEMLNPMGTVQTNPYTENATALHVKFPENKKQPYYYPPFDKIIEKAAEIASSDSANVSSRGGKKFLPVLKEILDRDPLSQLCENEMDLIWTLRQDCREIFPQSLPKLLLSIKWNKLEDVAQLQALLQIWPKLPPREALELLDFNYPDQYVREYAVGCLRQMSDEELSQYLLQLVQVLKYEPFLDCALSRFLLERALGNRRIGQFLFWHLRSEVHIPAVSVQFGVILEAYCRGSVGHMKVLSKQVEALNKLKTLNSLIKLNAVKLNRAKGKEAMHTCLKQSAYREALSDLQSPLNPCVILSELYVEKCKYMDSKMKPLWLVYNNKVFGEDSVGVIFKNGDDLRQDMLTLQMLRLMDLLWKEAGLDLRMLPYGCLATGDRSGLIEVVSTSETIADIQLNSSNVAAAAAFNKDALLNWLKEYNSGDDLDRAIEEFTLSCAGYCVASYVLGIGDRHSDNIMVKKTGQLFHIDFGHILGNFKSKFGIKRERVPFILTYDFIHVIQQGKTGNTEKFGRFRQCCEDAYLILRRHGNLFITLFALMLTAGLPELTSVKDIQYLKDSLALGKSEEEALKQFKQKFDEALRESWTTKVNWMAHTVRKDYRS
Chain of PI3K beta (P27986 whole entry partner): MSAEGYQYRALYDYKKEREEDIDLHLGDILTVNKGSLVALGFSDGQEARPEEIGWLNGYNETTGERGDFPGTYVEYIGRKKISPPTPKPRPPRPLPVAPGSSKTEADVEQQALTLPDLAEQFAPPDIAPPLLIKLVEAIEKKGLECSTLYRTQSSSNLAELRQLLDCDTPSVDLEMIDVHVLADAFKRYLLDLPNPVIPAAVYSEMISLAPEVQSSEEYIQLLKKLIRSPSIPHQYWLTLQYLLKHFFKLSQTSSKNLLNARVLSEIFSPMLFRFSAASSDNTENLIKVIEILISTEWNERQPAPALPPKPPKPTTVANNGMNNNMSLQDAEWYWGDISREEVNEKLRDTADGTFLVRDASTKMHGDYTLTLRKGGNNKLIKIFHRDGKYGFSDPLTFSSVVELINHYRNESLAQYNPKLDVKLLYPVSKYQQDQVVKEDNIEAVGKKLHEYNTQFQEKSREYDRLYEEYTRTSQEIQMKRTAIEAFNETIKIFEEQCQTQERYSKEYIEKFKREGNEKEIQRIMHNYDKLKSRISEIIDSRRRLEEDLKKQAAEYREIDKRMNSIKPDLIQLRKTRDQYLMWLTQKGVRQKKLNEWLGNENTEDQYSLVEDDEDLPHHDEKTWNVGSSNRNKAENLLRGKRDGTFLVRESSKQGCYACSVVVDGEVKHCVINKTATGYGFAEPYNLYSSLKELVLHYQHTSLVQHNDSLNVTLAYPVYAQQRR

Q: How did the IC50 turn out when `O=c1cc(N2CCNCC2)oc2c(-c3ccc4c(c3)OCCO4)csc12` [Compound 1] was run?
A: 10000 to 45000 nM

Q: Which IC50 does the source give for `O=C(NCc1cccnc1)c1cc(-c2csc3c(=O)cc(N4CCOCC4)oc23)cc2c1OCCO2` [Compound 2] here?
A: < 500 nM

Q: For `O=C(NCc1cccnc1)c1cc(-c2csc3c(=O)cc(N4CCNCC4)oc23)cc2c1OCCO2` [Compound 3], which IC50 is on record?
A: 1000 to 10000 nM

Q: `CN1CCN(c2cc(=O)c3scc(-c4cc5c(c(C(=O)NCc6cccnc6)c4)OCCO5)c3o2)CC1` [Compound 4] was tested. Which IC50 did it give?
A: 1000 to 10000 nM

Q: `COC(=O)c1cc(-c2csc3c(=O)cc(N4CCN(C(=O)OC(C)(C)C)CC4)oc23)cc2c1OCCO2` [Compound 5] was tested. Which IC50 did it give?
A: 1000 to 10000 nM

Q: Which IC50 does the source give for `CN(C)C(=O)c1cc2cnc(Nc3ccc(-c4csc5c(=O)cc(N6CCOCC6)oc45)cn3)nc2n1C1CCCC1` [Compound 8] here?
A: < 500 nM

Q: `CN(C)C(=O)c1cc2cnc(Nc3ccc(-c4csc5c(=O)cc(N6CCNCC6)oc45)cc3)nc2n1C1CCCC1` [Compound 9] was tested. Which IC50 did it give?
A: 10000 to 45000 nM

biological target: PI3K alpha (Homo sapiens, UniProt P42336); experiment: PI3K alpha in vitro inhibition; format: biochemical; settings: not given
Description: as §1

Chain of PI3K alpha (P42336 whole entry): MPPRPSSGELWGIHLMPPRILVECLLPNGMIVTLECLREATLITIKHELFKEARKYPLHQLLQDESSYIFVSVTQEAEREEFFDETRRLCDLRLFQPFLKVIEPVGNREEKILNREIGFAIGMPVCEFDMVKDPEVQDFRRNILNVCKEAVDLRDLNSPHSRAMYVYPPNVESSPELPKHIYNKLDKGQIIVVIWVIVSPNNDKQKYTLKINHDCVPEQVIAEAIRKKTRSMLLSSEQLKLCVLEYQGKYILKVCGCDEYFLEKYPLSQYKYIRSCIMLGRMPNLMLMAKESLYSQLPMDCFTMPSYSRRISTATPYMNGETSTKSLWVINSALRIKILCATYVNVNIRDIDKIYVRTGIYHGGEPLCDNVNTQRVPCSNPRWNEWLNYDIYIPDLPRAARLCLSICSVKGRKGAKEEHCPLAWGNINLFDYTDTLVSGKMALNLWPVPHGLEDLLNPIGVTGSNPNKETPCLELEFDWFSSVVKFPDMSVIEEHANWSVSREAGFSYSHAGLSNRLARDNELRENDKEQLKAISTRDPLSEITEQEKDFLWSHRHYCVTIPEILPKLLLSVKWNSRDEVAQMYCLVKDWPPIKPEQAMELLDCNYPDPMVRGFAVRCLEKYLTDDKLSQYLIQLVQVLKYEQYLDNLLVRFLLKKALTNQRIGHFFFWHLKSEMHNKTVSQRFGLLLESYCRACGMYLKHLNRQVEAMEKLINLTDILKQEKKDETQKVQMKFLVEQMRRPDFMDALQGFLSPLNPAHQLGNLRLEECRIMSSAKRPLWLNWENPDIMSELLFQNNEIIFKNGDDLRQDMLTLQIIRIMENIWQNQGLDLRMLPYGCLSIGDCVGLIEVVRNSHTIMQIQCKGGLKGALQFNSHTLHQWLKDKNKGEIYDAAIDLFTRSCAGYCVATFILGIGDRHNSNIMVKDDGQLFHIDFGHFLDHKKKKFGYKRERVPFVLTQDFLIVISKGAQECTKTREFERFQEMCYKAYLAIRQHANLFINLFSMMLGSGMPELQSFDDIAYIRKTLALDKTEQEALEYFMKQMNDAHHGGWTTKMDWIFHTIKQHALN
Chain of PI3K alpha (P27986 whole entry partner): as the sequence (P27986 whole entry partner) above

Q: `O=c1cc(N2CCNCC2)oc2c(-c3ccc4c(c3)OCCO4)csc12` [Compound 1] was tested. Which IC50 did it give?
A: > 45000 nM

Q: `O=C(NCc1cccnc1)c1cc(-c2csc3c(=O)cc(N4CCOCC4)oc23)cc2c1OCCO2` [Compound 2] was tested. Which IC50 did it give?
A: < 500 nM

Q: `O=C(NCc1cccnc1)c1cc(-c2csc3c(=O)cc(N4CCNCC4)oc23)cc2c1OCCO2` [Compound 3] was tested. Which IC50 did it give?
A: 1000 to 10000 nM

Q: For `CN1CCN(c2cc(=O)c3scc(-c4cc5c(c(C(=O)NCc6cccnc6)c4)OCCO5)c3o2)CC1` [Compound 4], which IC50 is on record?
A: 10000 to 45000 nM

Q: For `COC(=O)c1cc(-c2csc3c(=O)cc(N4CCN(C(=O)OC(C)(C)C)CC4)oc23)cc2c1OCCO2` [Compound 5], which IC50 is on record?
A: < 500 nM

Q: `CN(C)C(=O)c1cc2cnc(Nc3ccc(-c4csc5c(=O)cc(N6CCOCC6)oc45)cn3)nc2n1C1CCCC1` [Compound 8] was tested. Which IC50 did it give?
A: < 500 nM

Q: `CN(C)C(=O)c1cc2cnc(Nc3ccc(-c4csc5c(=O)cc(N6CCNCC6)oc45)cc3)nc2n1C1CCCC1` [Compound 9] was tested. Which IC50 did it give?
A: 10000 to 45000 nM

biological target: T1, BRD4-2 (Homo sapiens, UniProt O60885); experiment: BRD4-2 in vitro inhibition; format: binding; settings: not given
T1 construct: BRD4-2
Description: as §1

Q: With `O=c1cc(N2CCNCC2)oc2c(-c3ccc4c(c3)OCCO4)csc12` [Compound 1] as the compound, how does the IC50 read?
A: 10000 to 45000 nM

Q: How did the IC50 turn out when `O=C(NCc1cccnc1)c1cc(-c2csc3c(=O)cc(N4CCOCC4)oc23)cc2c1OCCO2` [Compound 2] was run?
A: < 500 nM

Q: With `O=C(NCc1cccnc1)c1cc(-c2csc3c(=O)cc(N4CCNCC4)oc23)cc2c1OCCO2` [Compound 3] as the compound, how does the IC50 read?
A: 1000 to 10000 nM

Q: Which IC50 does the source give for `CN1CCN(c2cc(=O)c3scc(-c4cc5c(c(C(=O)NCc6cccnc6)c4)OCCO5)c3o2)CC1` [Compound 4] here?
A: 1000 to 10000 nM

Q: Which IC50 does the source give for `COC(=O)c1cc(-c2csc3c(=O)cc(N4CCN(C(=O)OC(C)(C)C)CC4)oc23)cc2c1OCCO2` [Compound 5] here?
A: > 45000 nM

Q: Which IC50 does the source give for `CN(C)C(=O)c1cc2cnc(Nc3ccc(-c4csc5c(=O)cc(N6CCOCC6)oc45)cn3)nc2n1C1CCCC1` [Compound 8] here?
A: < 500 nM

Q: With `CN(C)C(=O)c1cc2cnc(Nc3ccc(-c4csc5c(=O)cc(N6CCNCC6)oc45)cc3)nc2n1C1CCCC1` [Compound 9] as the compound, how does the IC50 read?
A: 500 to 1000 nM

biological target: T2, BRD4-1 (Homo sapiens, UniProt O60885); experiment: BRD4-1 in vitro inhibition; format: binding; settings: not given
T2 construct: BRD4-1
Description: as §1

Q: `O=c1cc(N2CCNCC2)oc2c(-c3ccc4c(c3)OCCO4)csc12` [Compound 1] was tested. Which IC50 did it give?
A: < 500 nM

Q: `O=C(NCc1cccnc1)c1cc(-c2csc3c(=O)cc(N4CCOCC4)oc23)cc2c1OCCO2` [Compound 2] was tested. Which IC50 did it give?
A: < 500 nM

Q: `O=C(NCc1cccnc1)c1cc(-c2csc3c(=O)cc(N4CCNCC4)oc23)cc2c1OCCO2` [Compound 3] was tested. Which IC50 did it give?
A: < 500 nM

Q: For `CN1CCN(c2cc(=O)c3scc(-c4cc5c(c(C(=O)NCc6cccnc6)c4)OCCO5)c3o2)CC1` [Compound 4], which IC50 is on record?
A: < 500 nM

Q: With `COC(=O)c1cc(-c2csc3c(=O)cc(N4CCN(C(=O)OC(C)(C)C)CC4)oc23)cc2c1OCCO2` [Compound 5] as the compound, how does the IC50 read?
A: < 500 nM

Q: `CN(C)C(=O)c1cc2cnc(Nc3ccc(-c4csc5c(=O)cc(N6CCOCC6)oc45)cn3)nc2n1C1CCCC1` [Compound 8] was tested. Which IC50 did it give?
A: < 500 nM

Q: `CN(C)C(=O)c1cc2cnc(Nc3ccc(-c4csc5c(=O)cc(N6CCNCC6)oc45)cc3)nc2n1C1CCCC1` [Compound 9] was tested. Which IC50 did it give?
A: < 500 nM

biological target: CDK6 cyclinD1 (Homo sapiens, UniProt Q00534); experiment: CDK6 cyclinD1 in vitro inhibition; format: biochemical; settings: not given
Description: as §1, §2

Chain of CDK6 cyclinD1 (Q00534 whole entry): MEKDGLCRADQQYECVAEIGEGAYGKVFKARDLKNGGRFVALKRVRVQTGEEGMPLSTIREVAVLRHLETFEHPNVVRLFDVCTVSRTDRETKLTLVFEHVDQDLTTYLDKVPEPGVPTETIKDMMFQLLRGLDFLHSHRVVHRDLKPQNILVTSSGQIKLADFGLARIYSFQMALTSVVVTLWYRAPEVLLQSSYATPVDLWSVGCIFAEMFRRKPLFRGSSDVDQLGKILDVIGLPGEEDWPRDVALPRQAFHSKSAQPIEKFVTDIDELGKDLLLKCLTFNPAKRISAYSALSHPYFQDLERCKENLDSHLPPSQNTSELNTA
Chain of CDK6 cyclinD1 (P24385 whole entry partner): as the sequence (P24385 whole entry partner) above

Q: Which IC50 does the source give for `CN(C)C(=O)c1cc2cnc(Nc3ccc(-c4csc5c(=O)cc(N6CCOCC6)oc45)cn3)nc2n1C1CCCC1` [Compound 8] here?
A: < 500 nM

Q: Which IC50 does the source give for `CN(C)C(=O)c1cc2cnc(Nc3ccc(-c4csc5c(=O)cc(N6CCNCC6)oc45)cc3)nc2n1C1CCCC1` [Compound 9] here?
A: < 500 nM
